{"source": "patent US10201568B2", "about": "“Brain, spinal, and nerve injury treatment” (EUSTRALIS PHARMACEUTICALS LIMITED, priority 2000, dated 2019)", "key": {"[1]": {"test_system": "blood brain barrier permeability", "test": "brain penetration of Evans blue after injury", "assay_type": "in vivo", "details": "at 5 hours after injury (time of maximum blood brain barrier permeability)", "method": "(§1) This was consistent with the observation that N-acetyl-L-tryptophan reduced brain penetration of Evans blue at 5 hours after injury: the time associated with maximum blood brain barrier permeability and reduced vasogenic oedema formation."}, "brain injured animals [2]": {"test_system": "brain injured animals", "test": "otarod test, motor outcome after brain injury", "assay_type": "in vivo", "text": "(§2) A number of commercially synthesized substance P receptor antagonists are currently available from standard scientific chemical suppliers, as is apparent form Tables 1, 2, and 3. We chose to use the compound N-acetyl-L-tryptophan based on its low lipid solubility that limits its ability to naturally cross the blood brain barrier and the fact that it is relatively inexpensive."}, "brain injured animals [3]": {"test_system": "brain injured animals", "test": "brain water accumulation (cerebral oedema) after injury", "assay_type": "in vivo", "details": "at 24 hours after injury, compared to vehicle treated controls", "method": "as §1"}, "[4]": {"details": "limits its ability to naturally cross the blood brain barrier; cited from earlier work"}, "brain injured animals [5]": {"test_system": "brain injured animals", "test": "Barnes Circular Maze, cognitive outcome after brain injury", "assay_type": "in vivo", "text": "as §2"}, "[6]": {"details": "intravenous 246 mg/kg (saline vehicle) at 30 minutes after brain injury, apparent at 24 hours, persisted for 14 day assessment period, vs vehicle"}}}
{"smiles": "CC(=O)N[C@@H](Cc1c[nH]c2ccccc12)C(=O)O", "note": "[N-acetyl-L-tryptophan]", "values": [{"measurement": "brain penetration of Evans blue", "setting": "[1]", "value": "reduced"}, {"measurement": "motor outcome", "setting": "brain injured animals [2]; 24.6 mg/kg", "value": "less of a beneficial effect"}, {"measurement": "motor outcome as assessed by the otarod test", "setting": "brain injured animals [2]; [6]", "value": "significant improvement"}, {"measurement": "brain water accumulation (i.e. cerebral oedema)", "setting": "brain injured animals [3]", "value": "significant reduction"}, {"measurement": "lipid solubility", "setting": "[4]", "value": "low"}, {"measurement": "cognitive outcome of brain injured animals", "setting": "brain injured animals [5]; 24.6 mg/kg", "value": "significantly improved"}, {"measurement": "cognitive outcome as assessed by the Barnes Circular Maze", "setting": "brain injured animals [5]; [6]", "value": "significant improvement"}]}
